Results reported in publication PMC7717570, “Deciphering the enzymatic target of a new family of antischistosomal agents bearing a quinazoline scaffold using complementary computational tools” (Journal of Enzyme Inhibition and Medicinal Chemistry, 2020).
Like-named read-outs stand apart in the source and are kept apart here.

How the values were obtained:
[1] = system: Schistosoma mansoni mature worms; parameters: method as in PMID 30669086; conditions: cited from earlier work; for Worm killing (% of total) / Worm killing (female worms) / Worm killing (male worms): day 5, previously reported; for EC50: previously reported
[2] = Microsomal stability, mouse liver microsomes (S9), Phase-I (CYP450-NADPH); type: in vitro ADME; conditions: 5 µM
Method: (§1) Mouse or human liver microsomes (S9), reduced nicotinamide adenine dinucleotide phosphate (NADPH) generating system solutions and uridine glucuronosyltransferase (UGT) reaction mix (BD Biosciences) were kept at −80 °C. The test compounds and reference compound diclofenac were formulated in DMSO at […]. The assay was carried out based on the BD Biosciences Guidelines for Use (TF000017 Rev1.0) with minor adaptations. The metabolic stability of the compounds was studied through the CYP450 superfamily (Phase-I metabolism) by fortification with NADPH and through UGT enzymes (Phase-II metabolism) by fortification with uridine diphosphate glucuronic acid (UDPGA). For CYP450 and other NADPH dependent enzymes, the compounds were incubated at 5 µM together with 0.5 mg/mL S9 in potassium phosphate buffer in a reaction started by the addition of 1 mM NADP. At defined time points, 20 µL was withdrawn from the reaction mixture and 80 µL cold acetonitrile (ACN) was added to inactivate the enzymes and precipitate the protein. The mixture was vortexed for 30 s and centrifuged at 4 °C for 5 min to collect the supernatant. For UGT enzymes, the compounds were incubated at 5 µM together with 0.5 mg/mL S9 in a reaction started by the addition of 2 mM UDPGA cofactor. The loss of parent compound was determined using liquid chromatography (UPLC) (Waters Aquity^TM) coupled with tandem quadrupole mass spectrometry (MS^2) (Waters Xevo^TM), equipped with an electrospray ionisation (ESI) interface and operated in multiple reaction monitoring (MRM) mode.

[3] = system: Schistosoma mansoni worm couples; parameters: method as in PMID 30669086; conditions: previously reported, cited from earlier work
[4] = Microsomal stability, mouse liver microsomes (S9), Phase-II (UGT enzymes); type: in vitro ADME; conditions: 5 µM
Method: as §1

[5] = system: S. mansoni-infected mouse model; experiment: In vivo antischistosomal efficacy in the S. mansoni-infected mouse model; parameters: species or system Schistosoma mansoni; conditions: mice; for Reduction in total worm burden (percentage change from infected control): sacrificed 10 days post-treatment
Method: PZQ was obtained from Egyptian International Pharmaceutical Industries Company (EIPICO) and aminobenzotriazole (ABT) from Fluorochem Ltd.
Male Swiss albino mice (CD-1) obtained from SBSC and weighing 18–20 g were housed under environmentally controlled room temperature of 20–22 °C, 12 h light/dark cycle and 50–60% humidity with food and water ad libitum throughout the acclimatisation and experimental periods. All the animal experiments were conducted in accordance with the Guide for Care and Use of Laboratory Animals and were approved by the Institutional Review Board of Theodor Bilharz Research Institute (TBRI).
Mice were infected with S. mansoni cercariae [provided by Schistosome Biology Supply Center (SBSC)] using body immersion[16] by exposure to 80 ± 10 cercariae/mouse. Infected mice were divided into six groups: groups 1 and 2 were treated the vehicle and the CYP450 inhibitor ABT respectively; groups 3 and 4 were dosed for 5 days with NPD-1246 at 20 and 10 mg/kg, respectively, while group 5 was treated with PZQ at 10 mg/kg/day for 5 days. Group 6 was treated with NPD-1246 combined with PZQ, each at 10 mg/kg/day for 5 days starting from week 7 post-infection. To minimise first-pass elimination, ABT was administered at 100 mg/kg/day for 5 days 2 h prior to each compound administration. NPD-1246 and PZQ were freshly suspended in 2% Cremophore-EL (Sigma-Aldrich). All drug administrations were performed orally.
Ten days post-treatment, all mice were sacrificed and perfused, and the number of worms recovered (worm burden) was quantified and sexed. The number of eggs per gram of liver or intestinal tissue was counted. The percentage of egg developmental stages (oogram pattern) was studied[19] in which eggs at different stages of maturity (from I to IV) were identified and counted. Mature eggs and dead eggs (granular, dark, and semi-transparent) were also counted in three fragments of intestine and the mean number of each stage was calculated.
The percentage reduction of worm or egg burden in each treated group was calculated. […] Results are expressed as mean ± SEM. A two-tailed, unpaired Student’s t-test was used to detect the significance of difference between the means of different groups. Results are considered significant if p value is <0.05.

[6] = oral 20 mg/kg/day for 5 days with ABT

## O=c1c2ccccc2n(Cc2ccc(C(F)(F)F)cc2)c(=O)n1Cc1ccccc1 [NPD-1246, 3-Benzyl-1-(4-(trifluoromethyl)benzyl)quinazoline-2,4(1H,3H)-dione]
[1]; 5 µM
  Worm killing (% of total): 0%
[1]; 10 µM
  Worm killing (% of total): 0%
[1]; 25 µM
  Worm killing (% of total): 0%
[1]; 50 µM
  Worm killing (% of total): 53%
[1]; 100 µM
  Worm killing (% of total): 100%
[1]; female worms, 5 µM
  Worm killing (female worms): 0
[1]; female worms, 10 µM
  Worm killing (female worms): 0
[1]; female worms, 25 µM
  Worm killing (female worms): 0
[1]; female worms, 50 µM
  Worm killing (female worms): 57
[1]; female worms, 100 µM
  Worm killing (female worms): 100
[1]; female worms, read-out: EC50 (worm killing, female worms)
  EC50: 50 µM
[1]; male and female worms, read-out: EC50 (worm killing)
  EC50: 50 µM
[1]; male worms, 5 µM
  Worm killing (male worms): 0
[1]; male worms, 10 µM
  Worm killing (male worms): 0
[1]; male worms, 25 µM
  Worm killing (male worms): 0
[1]; male worms, 50 µM
  Worm killing (male worms): 50
[1]; male worms, 100 µM
  Worm killing (male worms): 100
[1]; male worms, read-out: EC50 (worm killing, male worms)
  EC50: 50 µM
[2]; 0 h
  % Parent compound remaining upon incubation: 100%
[2]; 0.25 h
  % Parent compound remaining upon incubation: 66%
[2]; 0.5 h
  % Parent compound remaining upon incubation: 27%
[2]; 1 h
  % Parent compound remaining upon incubation: 8%
[3]; 5 µM
  Uncoupling: No
[3]; 10 µM
  Uncoupling: No
[3]; 25 µM, listed as NPD-1246 (1)
  Uncoupling: Uncoupling and Yes
[3]; 50 µM
  Reduction in number of eggs (%): 100%
[3]; 50 µM, listed as NPD-1246 (1)
  Uncoupling: Uncoupling and Yes
[3]; 100 µM
  Reduction in number of eggs (%): 100%
[3]; 100 µM, listed as NPD-1246 (1)
  Uncoupling: Uncoupling and Yes
[4]; 0 h
  % Parent compound remaining upon incubation: 100%
[4]; 0.25 h
  % Parent compound remaining upon incubation: 111%
[4]; 0.5 h
  % Parent compound remaining upon incubation: 111%
[4]; 1 h
  % Parent compound remaining upon incubation: 106%
[5]; [6]
  Percentage of dead eggs compared to the infected untreated group: significant increase
  Reduction in intestinal tissue egg load (percentage change from infected control): 18%
[5]; oral 20 mg/kg/day for 5 days with ABT 100 mg/kg/day
  Reduction in total worm burden (percentage change from infected control): 24%

## O=C(C1CCCCC1)N1CC(=O)N2CCc3ccccc3C2C1 (stereo not drawn) [PZQ, praziquantel, reference compound]
[5]; oral 10 mg/kg/day (each) for 5 days with ABT
  Reduction in intestinal tissue egg load (percentage change from infected control): 70%
[5]; oral 10 mg/kg/day (each) for 5 days with ABT 100 mg/kg/day
  Reduction in total worm burden (percentage change from infected control): 63%
[5]; oral 10 mg/kg/day (each) for 5 days with ABT, + = increase
  Reduction in hepatic tissue egg load (percentage change from infected control): 38%
